Measurements from ChEMBL document CHEMBL3885861, “Open TG-GATES”.

Organism: Rattus norvegicus
Test: Open TG-GATES - Regimen: Daily Repeat
Type: toxicity, organism-based, Sprague-Dawley
Set-up: regimen Daily Repeat, gender Male, age 6 weeks
Settings: in vivo, po, route gavage; for APTT / Bas / Eos / Fbg / Hb / Ht / Lym / MCH / MCHC / MCV / Mono / Neu / PT / Plat / RBC / Ret / WBC: tissue Blood; for KIDNEY_L / KIDNEY_R / KIDNEY_TOTAL: tissue Kidney; for LIVER: tissue Liver; for ALP / ALT / AST / BUN / CRE / DBIL / GLC / K / Na / PL / RALB / TBIL / TC / TG / TP / gamma-GTP: tissue Plasma
[1] = 0 mg/kg, 72 h, dose level Control, time 3 day
[2] = 0 mg/kg, […], dose level Control, time 7 day
[3] = 0 mg/kg, […], dose level Control, time 14 day
[4] = 0 mg/kg, […], dose level Control, time 28 day
[5] = 25 mg/kg, 72 h, dose level Low, time 3 day
[6] = 25 mg/kg, […], dose level Low, time 7 day
[7] = 25 mg/kg, […], dose level Low, time 14 day
[8] = 25 mg/kg, […], dose level Low, time 28 day

Structure (SMILES): CN1C(=O)CN=C(c2ccccc2)c2cc(Cl)ccc21 [DIAZEPAM]
- TERMINAL_BW [1]: 246.7 g
- APTT [1]: 16.3 s
- Bas [1]: 0%
- Eos [1]: 1.2%
- Fbg [1]: 235.6 mg/dL
- Hb [1]: 13.5 g/dL
- Ht [1]: 40.6%
- Lym [1]: 78.6%
- MCH [1]: 21.4 pg
- MCHC [1]: 33.2%
- MCV [1]: 64.4 fL
- Mono [1]: 6.4%
- Neu [1]: 14.2%
- PT [1]: 12 s
- Plat [1]: 114.2 x10_4/uL
- RBC [1]: 630.6 x10_4/ul
- Ret [1]: 6.6%
- WBC [1]: 104 x10_2/uL
- KIDNEY_L [1]: 1.1 g
- KIDNEY_R [1]: 1.1 g
- KIDNEY_TOTAL [1]: 2.2 g
- LIVER [1]: 12.5 g
- ALP [1]: 817.2 IU/L
- ALT [1]: 34.2 IU/L
- AST [1]: 59.4 IU/L
- BUN [1]: 17.2 mg/dL
- CRE [1]: 0.5 mg/dL
- DBIL [1]: 0.006 mg/dL
- GLC [1]: 198.8 mg/dL
- K [1]: 5 meq/L
- Na [1]: 138.9 meq/L
- PL [1]: 154 mg/dL
- RALB [1]: 4 g/dL
- TBIL [1]: 0.3 mg/dL
- TC [1]: 78.4 mg/dL
- TG [1]: 115.4 mg/dL
- TP [1]: 6 g/dL
- gamma-GTP [1]: 1.6 IU/L
- TERMINAL_BW [2]: 289.2 g
- TERMINAL_BW [3]: 333.2 g
- TERMINAL_BW [4]: 416.1 g
- APTT [2]: 16 s
- Bas [2]: 0%
- Eos [2]: 1%
- Fbg [2]: 237.8 mg/dL
- Hb [2]: 14.2 g/dL
- Ht [2]: 42.8%
- Lym [2]: 79.2%
- MCH [2]: 21.8 pg
- MCHC [2]: 33.2%
- MCV [2]: 65.6 fL
- Mono [2]: 9.4%
- Neu [2]: 11%
- PT [2]: 11.4 s
- Plat [2]: 106.5 x10_4/uL
- RBC [2]: 653.4 x10_4/ul
- Ret [2]: 6.3%
- WBC [2]: 120.8 x10_2/uL
- APTT [3]: 16.4 s
- Bas [3]: 0%
- Eos [3]: 0.6%
- Fbg [3]: 234 mg/dL
- Hb [3]: 15.2 g/dL
- Ht [3]: 45.6%
- Lym [3]: 80.6%
- MCH [3]: 20.9 pg
- MCHC [3]: 33.3%
- MCV [3]: 62.9 fL
- Mono [3]: 3.6%
- Neu [3]: 14.8%
- PT [3]: 12 s
- Plat [3]: 92.8 x10_4/uL
- RBC [3]: 725.4 x10_4/ul
- Ret [3]: 4.5%
- WBC [3]: 149.8 x10_2/uL
- APTT [4]: 17 s
- Bas [4]: 0%
- Eos [4]: 1.2%
- Fbg [4]: 227.2 mg/dL
- Hb [4]: 15.8 g/dL
- Ht [4]: 47.5%
- Lym [4]: 83.6%
- MCH [4]: 19 pg
- MCHC [4]: 33.3%
- MCV [4]: 57 fL
- Mono [4]: 6.4%
- Neu [4]: 9%
- PT [4]: 12.3 s
- Plat [4]: 102.6 x10_4/uL
- RBC [4]: 833 x10_4/ul
- Ret [4]: 2.2%
- WBC [4]: 146.4 x10_2/uL
- KIDNEY_L [2]: 1.2 g
- KIDNEY_R [2]: 1.3 g
- KIDNEY_TOTAL [2]: 2.5 g
- KIDNEY_L [3]: 1.3 g
- KIDNEY_R [3]: 1.3 g
- KIDNEY_TOTAL [3]: 2.7 g
- KIDNEY_L [4]: 1.4 g
- KIDNEY_R [4]: 1.5 g
- KIDNEY_TOTAL [4]: 2.9 g
- LIVER [2]: 14.8 g
- LIVER [3]: 14.8 g
- LIVER [4]: 17.1 g
- ALP [2]: 843.2 IU/L
- ALT [2]: 37.2 IU/L
- AST [2]: 60.4 IU/L
- BUN [2]: 17.8 mg/dL
- CRE [2]: 0.5 mg/dL
- DBIL [2]: 0.02 mg/dL
- GLC [2]: 188.8 mg/dL
- K [2]: 5.1 meq/L
- Na [2]: 137.6 meq/L
- PL [2]: 184.8 mg/dL
- RALB [2]: 4.2 g/dL
- TBIL [2]: 0.3 mg/dL
- TC [2]: 92.8 mg/dL
- TG [2]: 164.6 mg/dL
- TP [2]: 6.4 g/dL
- gamma-GTP [2]: 1.6 IU/L
- ALP [3]: 714 IU/L
- ALT [3]: 37.4 IU/L
- AST [3]: 68.2 IU/L
- BUN [3]: 19.4 mg/dL
- CRE [3]: 0.6 mg/dL
- DBIL [3]: 0.01 mg/dL
- GLC [3]: 183.2 mg/dL
- K [3]: 4.6 meq/L
- Na [3]: 141.1 meq/L
- PL [3]: 149.2 mg/dL
- RALB [3]: 4 g/dL
- TBIL [3]: 0.3 mg/dL
- TC [3]: 72 mg/dL
- TG [3]: 131.8 mg/dL
- TP [3]: 6.4 g/dL
- gamma-GTP [3]: 1 IU/L
- ALP [4]: 591.2 IU/L
- ALT [4]: 28.4 IU/L
- AST [4]: 54.2 IU/L
- BUN [4]: 19.8 mg/dL
- CRE [4]: 0.7 mg/dL
- DBIL [4]: 0.002 mg/dL
- GLC [4]: 182.8 mg/dL
- K [4]: 4.5 meq/L
- Na [4]: 139.4 meq/L
- PL [4]: 147.8 mg/dL
- RALB [4]: 4.1 g/dL
- TBIL [4]: 0.2 mg/dL
- TC [4]: 67.2 mg/dL
- TG [4]: 165.6 mg/dL
- TP [4]: 6.6 g/dL
- gamma-GTP [4]: 1.2 IU/L
- TERMINAL_BW [5]: 248 g
- APTT [5]: 16.5 s
- Bas [5]: 0%
- Eos [5]: 1%
- Fbg [5]: 230 mg/dL
- Hb [5]: 13.9 g/dL
- Ht [5]: 42%
- Lym [5]: 84%
- MCH [5]: 21.5 pg
- MCHC [5]: 33.2%
- MCV [5]: 64.8 fL
- Mono [5]: 3.8%
- Neu [5]: 11.2%
- PT [5]: 12 s
- Plat [5]: 100.7 x10_4/uL
- RBC [5]: 647.8 x10_4/ul
- Ret [5]: 6.3%
- WBC [5]: 155.1 x10_2/uL
- KIDNEY_L [5]: 1.1 g
- KIDNEY_R [5]: 1.1 g
- KIDNEY_TOTAL [5]: 2.1 g
- LIVER [5]: 12 g
- ALP [5]: 908.6 IU/L
- ALT [5]: 37.4 IU/L
- AST [5]: 63.4 IU/L
- BUN [5]: 16.8 mg/dL
- CRE [5]: 0.6 mg/dL
- DBIL [5]: 0.016 mg/dL
- GLC [5]: 193.2 mg/dL
- K [5]: 4.7 meq/L
- Na [5]: 139.3 meq/L
- PL [5]: 150.4 mg/dL
- RALB [5]: 4.1 g/dL
- TBIL [5]: 0.3 mg/dL
- TC [5]: 81.4 mg/dL
- TG [5]: 76.4 mg/dL
- TP [5]: 6 g/dL
- gamma-GTP [5]: 1 IU/L
- TERMINAL_BW [6]: 279.2 g
- TERMINAL_BW [7]: 331.4 g
- TERMINAL_BW [8]: 411.1 g
- APTT [6]: 16.6 s
- Bas [6]: 0%
- Eos [6]: 0.8%
- Fbg [6]: 223 mg/dL
- Hb [6]: 14.2 g/dL
- Ht [6]: 42.5%
- Lym [6]: 79.6%
- MCH [6]: 20.8 pg
- MCHC [6]: 33.4%
- MCV [6]: 62.3 fL
- Mono [6]: 3.8%
- Neu [6]: 16.2%
- PT [6]: 11.4 s
- Plat [6]: 116.1 x10_4/uL
- RBC [6]: 681.6 x10_4/ul
- Ret [6]: 5.7%
- WBC [6]: 115.6 x10_2/uL
- APTT [7]: 16.6 s
- Bas [7]: 0%
- Eos [7]: 0.8%
- Fbg [7]: 225.8 mg/dL
- Hb [7]: 14.8 g/dL
- Ht [7]: 44.6%
- Lym [7]: 83.2%
- MCH [7]: 20.1 pg
- MCHC [7]: 33.3%
- MCV [7]: 60.3 fL
- Mono [7]: 5.6%
- Neu [7]: 10.6%
- PT [7]: 12 s
- Plat [7]: 110.6 x10_4/uL
- RBC [7]: 740 x10_4/ul
- Ret [7]: 4.1%
- WBC [7]: 120.7 x10_2/uL
- APTT [8]: 18 s
- Bas [8]: 0%
- Eos [8]: 0.6%
- Fbg [8]: 223.8 mg/dL
- Hb [8]: 15.8 g/dL
- Ht [8]: 47.2%
- Lym [8]: 83.4%
- MCH [8]: 19.3 pg
- MCHC [8]: 33.4%
- MCV [8]: 57.7 fL
- Mono [8]: 3.6%
- Neu [8]: 12%
- PT [8]: 12.1 s
- Plat [8]: 102.8 x10_4/uL
- RBC [8]: 818.6 x10_4/ul
- Ret [8]: 2.7%
- WBC [8]: 154.6 x10_2/uL
- KIDNEY_L [6]: 1.2 g
- KIDNEY_R [6]: 1.2 g
- KIDNEY_TOTAL [6]: 2.4 g
- KIDNEY_L [7]: 1.3 g
- KIDNEY_R [7]: 1.3 g
- KIDNEY_TOTAL [7]: 2.6 g
- KIDNEY_L [8]: 1.4 g
- KIDNEY_R [8]: 1.4 g
- KIDNEY_TOTAL [8]: 2.8 g
- LIVER [6]: 14.1 g
- LIVER [7]: 14.8 g
- LIVER [8]: 16.9 g
- ALP [6]: 886.2 IU/L
- ALT [6]: 33.6 IU/L
- AST [6]: 62 IU/L
- BUN [6]: 18.8 mg/dL
- CRE [6]: 0.5 mg/dL
- DBIL [6]: 0.024 mg/dL
- GLC [6]: 188.2 mg/dL
- K [6]: 4.9 meq/L
- Na [6]: 137.7 meq/L
- PL [6]: 170.4 mg/dL
- RALB [6]: 4.1 g/dL
- TBIL [6]: 0.3 mg/dL
- TC [6]: 77.8 mg/dL
- TG [6]: 168.6 mg/dL
- TP [6]: 6.1 g/dL
- gamma-GTP [6]: 1.2 IU/L
- ALP [7]: 848.8 IU/L
- ALT [7]: 34.4 IU/L
- AST [7]: 64.4 IU/L
- BUN [7]: 18.4 mg/dL
- CRE [7]: 0.6 mg/dL
- DBIL [7]: 0.002 mg/dL
- GLC [7]: 190.2 mg/dL
- K [7]: 4.4 meq/L
- Na [7]: 140.3 meq/L
- PL [7]: 148.2 mg/dL
- RALB [7]: 4 g/dL
- TBIL [7]: 0.3 mg/dL
- TC [7]: 66.4 mg/dL
- TG [7]: 154.8 mg/dL
- TP [7]: 6.1 g/dL
- gamma-GTP [7]: 0.8 IU/L
- ALP [8]: 483.4 IU/L
- ALT [8]: 30.6 IU/L
- AST [8]: 60.4 IU/L
- BUN [8]: 19.8 mg/dL
- CRE [8]: 0.6 mg/dL
- DBIL [8]: 0.016 mg/dL
- GLC [8]: 201.4 mg/dL
- K [8]: 4.3 meq/L
- Na [8]: 140.7 meq/L
- PL [8]: 135.6 mg/dL
- RALB [8]: 4 g/dL
- TBIL [8]: 0.3 mg/dL
- TC [8]: 63.6 mg/dL
- TG [8]: 134.2 mg/dL
- TP [8]: 6.5 g/dL
- gamma-GTP [8]: 1 IU/L
